Measured values as given in ChEMBL document CHEMBL2375249, “Synthesis and biological evaluation of novel pyrrolidine-2,5-dione derivatives as potential antidepressant agents. Part 1” (Eur J Med Chem, 2013).
Active and inactive are the calls of the source. No cut-off for these calls is given here.

Key:
[1] = target: T1, 5-hydroxytryptamine receptor 1A (Rattus norvegicus, UniProt P19327); test: Displacement of [3H]-8-OH-DPAT from 5HT1A receptor in rat hippocampal membranes after 20 mins; type: cell membranes, Hippocampus, Membrane
T1 sequence (P19327 whole entry): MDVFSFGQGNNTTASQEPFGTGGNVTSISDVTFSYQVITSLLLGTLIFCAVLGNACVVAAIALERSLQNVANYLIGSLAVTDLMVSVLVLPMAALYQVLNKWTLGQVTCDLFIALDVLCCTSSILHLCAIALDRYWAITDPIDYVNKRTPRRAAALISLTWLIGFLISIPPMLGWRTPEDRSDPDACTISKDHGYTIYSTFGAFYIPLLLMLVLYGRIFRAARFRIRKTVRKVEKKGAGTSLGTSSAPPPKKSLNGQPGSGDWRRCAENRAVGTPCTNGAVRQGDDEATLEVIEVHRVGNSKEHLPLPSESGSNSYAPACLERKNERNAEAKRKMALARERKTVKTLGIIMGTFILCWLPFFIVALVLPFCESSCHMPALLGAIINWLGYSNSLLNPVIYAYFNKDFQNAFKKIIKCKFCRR

[2] = target: Sodium-dependent serotonin transporter (Rattus norvegicus, UniProt P31652); test: Displacement of [3H]-citalopram from SERT in rat cerebral cortex after 1 hr by liquid scintillation counting analysis; type: tissue-based
Chain of Sodium-dependent serotonin transporter (P31652 whole entry): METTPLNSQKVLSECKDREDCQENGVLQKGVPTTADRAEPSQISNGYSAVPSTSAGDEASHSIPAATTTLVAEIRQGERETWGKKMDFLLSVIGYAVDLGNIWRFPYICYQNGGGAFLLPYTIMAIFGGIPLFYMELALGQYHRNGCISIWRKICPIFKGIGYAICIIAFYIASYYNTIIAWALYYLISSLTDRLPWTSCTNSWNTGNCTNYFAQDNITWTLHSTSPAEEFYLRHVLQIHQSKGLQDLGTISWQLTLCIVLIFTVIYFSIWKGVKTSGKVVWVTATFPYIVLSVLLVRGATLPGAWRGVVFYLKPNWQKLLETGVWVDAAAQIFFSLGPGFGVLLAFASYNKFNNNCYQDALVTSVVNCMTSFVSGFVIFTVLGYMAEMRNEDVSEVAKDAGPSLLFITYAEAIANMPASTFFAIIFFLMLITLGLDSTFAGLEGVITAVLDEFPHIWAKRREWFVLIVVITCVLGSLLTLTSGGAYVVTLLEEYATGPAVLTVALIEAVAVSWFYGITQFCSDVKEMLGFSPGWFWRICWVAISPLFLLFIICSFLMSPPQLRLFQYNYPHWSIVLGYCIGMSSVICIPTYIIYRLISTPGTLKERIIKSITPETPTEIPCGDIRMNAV

[3] = target: 5-hydroxytryptamine receptor 2A (Rattus norvegicus, UniProt P14842); test: Displacement of [3H]-ketanserin from 5HT2A in rat cerebral cortex 20 mins by liquid scintillation counting analysis; type: tissue-based
Chain of 5-hydroxytryptamine receptor 2A (P14842 whole entry): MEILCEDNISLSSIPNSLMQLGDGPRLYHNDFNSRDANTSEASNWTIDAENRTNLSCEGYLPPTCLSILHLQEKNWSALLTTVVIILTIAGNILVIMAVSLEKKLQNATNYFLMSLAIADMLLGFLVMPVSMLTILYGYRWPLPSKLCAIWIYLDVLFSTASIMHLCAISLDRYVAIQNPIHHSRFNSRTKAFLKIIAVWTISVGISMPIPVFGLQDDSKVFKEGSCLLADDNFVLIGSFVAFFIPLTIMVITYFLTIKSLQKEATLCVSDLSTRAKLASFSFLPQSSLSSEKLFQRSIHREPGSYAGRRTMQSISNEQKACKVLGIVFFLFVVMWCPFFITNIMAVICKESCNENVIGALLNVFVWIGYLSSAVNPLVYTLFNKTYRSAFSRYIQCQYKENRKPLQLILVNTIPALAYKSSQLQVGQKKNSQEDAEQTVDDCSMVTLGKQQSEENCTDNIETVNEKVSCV

[4] = target: 5-hydroxytryptamine receptor 7 (Homo sapiens, UniProt P34969); test: Displacement of [3H]-5CT from human 5HT7 receptor expressed in HEK293 cells after 1 hr; type: cell-based
Chain of 5-hydroxytryptamine receptor 7 (P34969 whole entry): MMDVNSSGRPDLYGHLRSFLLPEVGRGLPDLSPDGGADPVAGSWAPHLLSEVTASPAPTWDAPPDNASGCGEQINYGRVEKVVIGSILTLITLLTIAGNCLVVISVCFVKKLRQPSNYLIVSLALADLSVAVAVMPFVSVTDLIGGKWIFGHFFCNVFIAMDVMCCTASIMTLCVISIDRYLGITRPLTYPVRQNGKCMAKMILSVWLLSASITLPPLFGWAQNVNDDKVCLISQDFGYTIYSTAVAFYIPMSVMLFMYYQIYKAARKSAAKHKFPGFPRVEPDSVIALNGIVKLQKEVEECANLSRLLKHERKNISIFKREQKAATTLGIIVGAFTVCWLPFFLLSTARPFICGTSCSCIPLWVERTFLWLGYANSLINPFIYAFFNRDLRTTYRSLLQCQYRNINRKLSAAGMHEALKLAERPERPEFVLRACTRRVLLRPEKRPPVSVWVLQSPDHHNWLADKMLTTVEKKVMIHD

[5] = target: 5-hydroxytryptamine receptor 6 (Homo sapiens, UniProt P50406); test: Displacement of [3H]-LSD from human 5HT6 receptor expressed in HEK293 cells after 1 hr; type: cell-based
Chain of 5-hydroxytryptamine receptor 6 (P50406 whole entry): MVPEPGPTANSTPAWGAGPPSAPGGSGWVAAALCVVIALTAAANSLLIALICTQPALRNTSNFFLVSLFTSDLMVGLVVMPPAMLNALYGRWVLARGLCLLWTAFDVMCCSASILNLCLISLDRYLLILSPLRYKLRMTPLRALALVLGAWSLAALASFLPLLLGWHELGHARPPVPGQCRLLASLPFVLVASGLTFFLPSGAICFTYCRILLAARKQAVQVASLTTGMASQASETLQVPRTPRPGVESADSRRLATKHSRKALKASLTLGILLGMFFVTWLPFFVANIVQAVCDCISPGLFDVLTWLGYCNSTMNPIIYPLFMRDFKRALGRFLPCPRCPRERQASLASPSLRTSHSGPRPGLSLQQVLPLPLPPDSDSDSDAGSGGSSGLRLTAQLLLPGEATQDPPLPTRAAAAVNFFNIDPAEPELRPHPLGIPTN

[6] = target: D(2) dopamine receptor (Homo sapiens, UniProt P14416); test: Displacement of [3H]-raclopride from human dopamine D2L receptor expressed in HEK293 cells after 1 hr; type: cell-based
Chain of D(2) dopamine receptor (P14416 whole entry): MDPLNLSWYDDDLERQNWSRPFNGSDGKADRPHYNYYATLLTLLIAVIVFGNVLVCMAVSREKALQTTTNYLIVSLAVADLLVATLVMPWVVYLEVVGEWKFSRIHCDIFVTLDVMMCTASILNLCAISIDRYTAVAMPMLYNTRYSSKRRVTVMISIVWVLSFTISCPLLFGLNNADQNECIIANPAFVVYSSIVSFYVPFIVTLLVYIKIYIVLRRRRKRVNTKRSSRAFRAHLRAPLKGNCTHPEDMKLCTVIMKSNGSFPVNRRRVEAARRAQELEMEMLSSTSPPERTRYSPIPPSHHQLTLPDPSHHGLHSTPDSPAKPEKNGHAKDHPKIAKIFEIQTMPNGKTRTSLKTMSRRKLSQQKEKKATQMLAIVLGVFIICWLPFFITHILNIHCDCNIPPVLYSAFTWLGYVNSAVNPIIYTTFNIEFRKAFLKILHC

[7] = system: Mus musculus; test: Induction of hypothermia in CD1 mouse assessed as change in rectal body temperature at 5 mg/kg, ip administered 30 mins prior to test measured after 60 mins relative to control; type: functional, organism-based; set-up: dose 5 mg/kg
[8] = system: Mus musculus; test: Induction of hypothermia in CD1 mouse assessed as change in rectal body temperature at 2.5 mg/kg, ip administered 30 mins prior to test measured after 90 mins relative to control; type: functional, organism-based; set-up: dose 2.5 mg/kg
[9] = system: Mus musculus; test: Induction of hypothermia in CD1 mouse assessed as change in rectal body temperature at 5 mg/kg, ip administered 30 mins prior to test measured after 30 mins in presence of WAY 100635 relative to control; type: functional, organism-based; set-up: dose 5 mg/kg
[10] = system: Mus musculus; test: Induction of hypothermia in CD1 mouse assessed as change in rectal body temperature at 5 mg/kg, ip administered 30 mins prior to test measured after 120 mins relative to control; type: functional, organism-based; set-up: dose 5 mg/kg
[11] = system: Mus musculus; test: Antidepressant activity in CD1 mouse assessed as reduction in immobility time at 2.5 to 5 mg/kg, ip measured during final 4 mins in 6 mins test session after 2 mins habituation period by forced swimming test; type: functional, organism-based
[12] = system: Mus musculus; test: Induction of hypothermia in CD1 mouse assessed as change in rectal body temperature at 2.5 mg/kg, ip administered 30 mins prior to test measured after 120 mins relative to control; type: functional, organism-based; set-up: dose 2.5 mg/kg
[13] = system: Mus musculus; test: Induction of hypothermia in CD1 mouse assessed as change in rectal body temperature at 5 mg/kg, ip administered 30 mins prior to test measured after 90 mins relative to control; type: functional, organism-based; set-up: dose 5 mg/kg
[14] = system: Mus musculus; test: Induction of hypothermia in CD1 mouse assessed as change in rectal body temperature at 5 mg/kg, ip administered 30 mins prior to test measured after 30 mins relative to control; type: functional, organism-based; set-up: dose 5 mg/kg
[15] = system: Mus musculus; test: Induction of hypothermia in CD1 mouse assessed as change in rectal body temperature at 2.5 mg/kg, ip administered 30 mins prior to test measured after 30 mins relative to control; type: functional, organism-based; set-up: dose 2.5 mg/kg
[16] = system: Mus musculus; test: Induction of hypothermia in CD1 mouse assessed as change in rectal body temperature at 5 mg/kg, ip administered 30 mins prior to test measured after 60 mins in presence of WAY 100635 relative to control; type: functional, organism-based; set-up: dose 5 mg/kg
[17] = system: Mus musculus; test: Induction of hypothermia in CD1 mouse assessed as change in rectal body temperature at 2.5 mg/kg, ip administered 30 mins prior to test measured after 60 mins relative to control; type: functional, organism-based; set-up: dose 2.5 mg/kg
[18] = system: Mus musculus; test: Antidepressant activity in CD1 mouse assessed as reduction in immobility time at 1 to 2 mg/kg, sc measured during final 4 mins in 6 mins test session after 2 mins habituation period by forced swimming test; type: functional, organism-based
[19] = system: Mus musculus; test: Induction of hypothermia in CD1 mouse assessed as change in rectal body temperature at 2.5 mg/kg, ip administered 30 mins prior to test measured after 60 mins in presence of WAY 100635 relative to control; type: functional, organism-based; set-up: dose 2.5 mg/kg
[20] = system: Mus musculus; test: Induction of hypothermia in CD1 mouse assessed as change in rectal body temperature at 2.5 mg/kg, ip administered 30 mins prior to test measured after 30 mins in presence of WAY 100635 relative to control; type: functional, organism-based; set-up: dose 2.5 mg/kg

O=C1CC(c2c[nH]c3ccccc23)C(=O)N1CCCCN1CC=C(c2c[nH]c3ccc(Br)cc23)CC1 (racemic)
Ki [1]: 59.1 nM
Ki [2]: 208 nM

O=C1CC(c2c[nH]c3ccccc23)C(=O)N1CCCN1CC=C(c2c[nH]c3ccccc23)CC1 (racemic)
Ki [1]: 161 nM
Ki [2]: 4 nM

COc1ccc2[nH]cc(C3CCN(CCCN4C(=O)CC(c5c[nH]c6ccccc56)C4=O)CC3)c2c1 (racemic)
Ki [3]: 11600 nM
Ki [4]: 589 nM
Ki [1]: 32.6 nM
Ki [5]: 264 nM
Ki [2]: 221 nM
Ki [6]: 343 nM

O=C1CC(c2c[nH]c3ccccc23)C(=O)N1CCCN1CCC(c2c[nH]c3ccccc23)CC1 (racemic)
Ki [1]: 68.5 nM
Ki [2]: 354 nM

COc1ccc2[nH]cc(C3CCN(CCN4C(=O)CC(c5c[nH]c6ccccc56)C4=O)CC3)c2c1 (racemic)
Ki [1]: 352 nM
Ki [2]: 1850 nM

O=C1CC(c2c[nH]c3ccccc23)C(=O)N1CCN1CC=C(c2c[nH]c3ccc(Cl)cc23)CC1 (racemic)
Ki [1]: 406 nM
Ki [2]: 96.7 nM

O=C1CC(c2c[nH]c3ccccc23)C(=O)N1CCCCN1CC=C(c2c[nH]c3ccc(Cl)cc23)CC1 (racemic)
Ki [1]: 68.7 nM
Ki [2]: 74.4 nM

O=C1CC(c2c[nH]c3ccccc23)C(=O)N1CCCN1CC=C(c2c[nH]c3ccc(Br)cc23)CC1 (racemic)
Ki [1]: 111 nM
Ki [2]: 182 nM

O=C1CC(c2c[nH]c3ccccc23)C(=O)N1CCCN1CC=C(c2c[nH]c3ccc(F)cc23)CC1 (racemic)
Ki [1]: 106 nM
Ki [2]: 5.2 nM

COc1ccc2[nH]cc(C3=CCN(CCN4C(=O)CC(c5c[nH]c6ccccc56)C4=O)CC3)c2c1 (racemic)
Ki [1]: 1740 nM
Ki [2]: 784 nM

O=C1CC(c2c[nH]c3ccccc23)C(=O)N1CCCCN1CCC(c2c[nH]c3ccc(F)cc23)CC1 (racemic)
Ki [3]: 71 nM
Ki [4]: 196 nM
Ki [1]: 7.5 nM
Ki [5]: 63 nM
Ki [2]: 505 nM
Ki [6]: 14 nM

O=C1CC(c2c[nH]c3ccccc23)C(=O)N1CCCCN1CC=C(c2c[nH]c3ccc(F)cc23)CC1 (racemic)
deltaT [7]: -1.5 °C
deltaT [8]: -0.7 °C
deltaT [9]: -0.5 °C
deltaT [10]: -1.2 °C
Activity [11]: inactive
deltaT [12]: -0.7 °C
deltaT [13]: -1.3 °C
deltaT [14]: -1.6 °C
Ki [1]: 17.6 nM
deltaT [15]: -0.6 °C
deltaT [16]: -0.2 °C
deltaT [17]: -0.7 °C
Ki [2]: 20 nM

O=C1CC(c2c[nH]c3ccccc23)C(=O)N1CCN1CC=C(c2c[nH]c3ccc(F)cc23)CC1 (racemic)
Ki [1]: 372 nM
Ki [2]: 68.4 nM

COc1ccc2[nH]cc(C3CCN(CCCCN4C(=O)CC(c5c[nH]c6ccccc56)C4=O)CC3)c2c1 (racemic)
Ki [3]: 498 nM
Ki [4]: 345 nM
Ki [1]: 2.2 nM
Ki [5]: 159 nM
Ki [2]: 210 nM
Ki [6]: 161 nM

CCCN(CCC)C1CCc2cccc(O)c2C1 (configuration not stated)
Activity [18]: Active

O=C1CC(c2c[nH]c3ccccc23)C(=O)N1CCCN1CC=C(c2c[nH]c3ccc(Cl)cc23)CC1 (racemic)
Ki [1]: 285 nM
Ki [2]: 50.7 nM

COc1ccc2[nH]cc(C3=CCN(CCCCN4C(=O)CC(c5c[nH]c6ccccc56)C4=O)CC3)c2c1 (racemic)
deltaT [7]: -1.1 °C
deltaT [8]: -0.7 °C
deltaT [9]: -0.4 °C
deltaT [10]: -0.9 °C
Activity [11]: inactive
deltaT [12]: -0.4 °C
deltaT [13]: -1.1 °C
deltaT [14]: -1.1 °C
Ki [1]: 3.2 nM
deltaT [15]: -0.5 °C
deltaT [16]: -0.3 °C
deltaT [17]: -0.5 °C
Ki [2]: 46.2 nM

O=C1CC(c2c[nH]c3ccccc23)C(=O)N1CCCCN1CCC(c2c[nH]c3ccccc23)CC1 (racemic)
deltaT [7]: -2.8 °C
deltaT [8]: -1.3 °C
deltaT [10]: -2.1 °C
deltaT [19]: -1.1 °C
deltaT [12]: -1.2 °C
deltaT [13]: -2.1 °C
deltaT [14]: -2.4 °C
Ki [1]: 15.7 nM
deltaT [15]: -1.3 °C
deltaT [20]: -1 °C
deltaT [17]: -1.5 °C
Ki [2]: 5.7 nM

O=C1CC(c2c[nH]c3ccccc23)C(=O)N1CCN1CC=C(c2c[nH]c3ccc(Br)cc23)CC1 (racemic)
Ki [1]: 324 nM
Ki [2]: 673 nM

O=C1CC(c2c[nH]c3ccccc23)C(=O)N1CCN1CCC(c2c[nH]c3ccccc23)CC1 (racemic)
Ki [1]: 364 nM
Ki [2]: 56 nM

O=C1CC(c2c[nH]c3ccccc23)C(=O)N1CCCN1CCC(c2c[nH]c3ccc(F)cc23)CC1 (racemic)
Ki [1]: 122 nM
Ki [2]: 215 nM

O=C1CC(c2c[nH]c3ccccc23)C(=O)N1CCCCN1CC=C(c2c[nH]c3ccccc23)CC1 (racemic)
deltaT [7]: -1.4 °C
deltaT [8]: -0.9 °C
deltaT [9]: -1.2 °C
deltaT [10]: -1.4 °C
deltaT [12]: -0.9 °C
deltaT [13]: -1.5 °C
deltaT [14]: -1.5 °C
Ki [1]: 12.5 nM
deltaT [15]: -0.7 °C
deltaT [16]: -1.2 °C
deltaT [17]: -0.6 °C
Ki [2]: 11.3 nM

COc1ccc2[nH]cc(C3=CCN(CCCN4C(=O)CC(c5c[nH]c6ccccc56)C4=O)CC3)c2c1 (racemic)
Ki [1]: 210 nM
Ki [2]: 125 nM

O=C1CC(c2c[nH]c3ccccc23)C(=O)N1CCN1CCC(c2c[nH]c3ccc(F)cc23)CC1 (racemic)
Ki [3]: 384 nM
Ki [4]: 1160 nM
Ki [1]: 8.1 nM
Ki [5]: 1150 nM
Ki [2]: 381 nM
Ki [6]: 80 nM

O=C1CC(c2c[nH]c3ccccc23)C(=O)N1CCN1CC=C(c2c[nH]c3ccccc23)CC1 (racemic)
Ki [1]: 250 nM
Ki [2]: 33.8 nM
